Reference: patent US8603527B2, “Pharmaceutical formulations of a substituted diaminopurine” (Signal Pharmaceuticals, LLC, priority 2010, dated 2013)

Experiment: clinical
Details: human, in vivo, 100 mg; for AUC(0-t): AUC0-t; for Vd/F: Vz/F
Excerpt: Methods: This was an open-label study conducted at a single study center in conformance with good clinical practice (GCP). Thirty-six eligible healthy male and female subjects were enrolled and distributed into 3 groups as follows:
Group 1—A total of 12 females between 18 to 55 years of age, inclusive (±5 years age-matched and ±10% weight-matched to subjects in Group 2).
Group 2—A total of 12 males between 18 to 55 years of age, inclusive (±5 years age-matched and ±10% weight-matched to subjects in Group 1).
Group 3—A total of 12 males and females between 65 and 85 years of age, inclusive (weight and gender-matched to subjects in Groups 1 and 2), with a minimum of 3 subjects of each gender. Seven of the subjects in Group 3 were age 70 or above, with 2 of those subjects being >75 years of age.
Group 1 (Healthy Females) and Group 3 (Elderly Males and Females): Subjects were screened within 21 days of dosing and eligible subjects were admitted to the study center on Day −1 (i.e., at least 12 hours predose) for baseline assessments and confirmation of eligibility. A single oral dose of 100 mg Compound I was administered on Day 1 following an overnight fast of at least 8 hours. Subjects were discharged from the study center the morning of Day 3 upon completion of study procedures and returned to the study center for PK blood draws and safety assessments on Days 4, 5, and 6. The end-of-study (EOS) evaluation also occurred on Day 6. Subjects returned to the study center for a follow-up visit between 7 and 10 days from EOS. Serial blood samples were collected predose and up to 120 hours postdose for the determination of plasma Compound I concentrations. Safety was monitored throughout the study; safety evaluations included AE reporting, physical examinations, vital sign measurements, ECGs, and clinical laboratory safety tests. All AEs and concomitant medications were assessed and recorded throughout the study from the time the ICF was signed through follow-up.
Group 2 (Healthy Males): Subjects in Group 2 participated in this portion of the study to evaluate food effect using a randomized, open-label, single dose, 2-period (Period 1 and Period 2), 2-sequence, 2-way crossover design. Subjects were screened within 21 days of dosing and eligible subjects were admitted to the study center on Day −1 (i.e., at least 12 hours predose) for baseline assessments and confirmation of eligibility. On Day 1 of Period 1, following an overnight fast of at least 8 hours, subjects were randomized to receive 100 mg Compound I either with or without food (6 subjects received Compound I with food and 6 subjects received Compound I without food) according to a random code. Subjects were discharged from the study center the morning of Day 3 upon completion of study procedures and returned to the study center for PK blood draws and safety assessments on Days 4, 5, and 6.
Following an interdose interval of 10 to 15 days (i.e., at least 10 days and no more than 15 days from the dosing day (Day 1) of Period 1 to Day 1 of Period 2), subjects were re-admitted to the study center on Day −1 of Period 2 (i.e., at least 12 hours predose) for baseline assessments and reconfirmation of eligibility. On Day 1 of Period 2, assigned treatment was switched. Subjects who received Compound I with food in Period 1 received Compound I without food in Period 2 and subjects who received Compound I without food in Period 1 received Compound I with food in Period 2. Subjects were discharged from the study center the morning of Day 3 upon completion of study procedures and returned to the study center for PK blood draws and safety assessments on Days 4, 5, and 6. Day 6 of Period 2 also served as the EOS evaluation. Subjects returned to the study center for a follow-up visit between 7 and 10 days from EOS. In each study period, serial blood samples were collected predose and up to 120 hours postdose for the determination of plasma Compound I concentrations. […]

Work on `O[C@H]1CC[C@H](Nc2ncc3nc(Nc4c(F)cc(F)cc4F)n([C@H]4CCOC4)c3n2)CC1` [Compound I, 4-((9-((3S)-tetrahydro-3-furanyl)-8-((2,4,6-trifluorophenyl)amino)-9H-purin-2-yl)amino)-trans-cyclohexanol] yielded an AUC(0-t) (both sexes, po, Geometric Mean) of 13500 ng·h/mL, an AUC(0-t) (both sexes, po, Geometric Means) of 13500 ng·h/mL and an AUC(0-inf) (both sexes, po, AUC0-∞ (geometric mean)) of 14400 ng·h/mL. The AUC(0-inf) (both sexes, po, AUC0-∞, Geometric Mean) was 14400 ng·h/mL, the AUC(0-inf) (both sexes, po, AUC0-∞, Geometric Means) was 14300 ng·h/mL and the AUC (both sexes, po, AUCO-inf) was 14800 ng·h/mL. For the same molecule, the AUC (both sexes, po, AUCO-t) was 14200 ng·h/mL, the Cmax (both sexes, po, Cmax) was 742 ng/mL and the Cmax (both sexes, po, Cmax (geometric mean)) was 649 ng/mL. The Cmax (both sexes, po, Cmax, Geometric Mean) was 602 ng/mL, the Cmax (both sexes, po, Cmax, Geometric Means) was 654 ng/mL and the half-life (both sexes, po, T1/2) was 24.5 h. It also gave a Tmax (both sexes, po, Tmax) of 1.97 h, a Tmax (both sexes, po, Tmax, Median) of 2 h and a Vd/F (both sexes, po) of 250 L. It also gave a half-life (both sexes, po, mean t1/2) of 23 to 34 h, a Tmax (both sexes, po, median Tmax) of 1 to 2 h and a half-life (both sexes, po, t1/2, Geometric Mean) of 27.9 h. The “90% CI for the ratio (elderly/young) of geometric means, AUC0-t” value (both) was 86.7, 119.1, the “90% CI for the ratio (elderly/young) of geometric means, AUC0-∞” value (both) was 84.0, 117.3 and the “90% CI for the ratio (elderly/young) of geometric means, Cmax” value (both) was 82.0, 143.8. For the same molecule, the “90% CI for the ratio (female/male) of geometric means, AUC0-t” value (both) was 81.7, 112.1, the “90% CI for the ratio (female/male) of geometric means, AUC0-∞” value (both) was 79.7, 111.4 and the “90% CI for the ratio (female/male) of geometric means, Cmax” value (both) was 72.3, 126.7. The “AUC0-t, Geometric Mean” value (both, po) was 13679.40 ng·h/mL, the “AUC0-t, Geometric Means” value (both, po) was 13722.1 ng·h/mL and the “AUC0-∞ (geometric mean)” value (both, po) was 14239.14 ng·h/mL. The “AUC0-∞, Geometric Mean” value (both, po) was 14239.14 ng·h/mL, the “AUC0-∞, Geometric Means” value (both, po) was 14398.3 ng·h/mL and the “Cmax, Geometric Means” value (both, po) was 602.0 ng/mL. The “Tmax, Median” value (both, po) was 1.75 h, the “median Tmax” value (both, po) was “approximately 1.5 hours” and the “t1/2, Geometric Mean” value (both, po) was 23.61 h. It also gave an AUC(0-t) (female, po, Geometric Mean) of 13100 ng·h/mL, an AUC(0-t) (female, po, Geometric Means) of 13300 ng·h/mL and an AUC(0-inf) (female, po, AUC0-∞) of 13700 ng·h/mL. For the same molecule, the AUC(0-inf) (female, po, AUC0-∞, Geometric Mean) was 13700 ng·h/mL, the AUC(0-inf) (female, po, AUC0-∞, Geometric Means) was 13900 ng·h/mL and the AUC (female, po, AUCO-inf) was 13300 ng·h/mL. The AUC (female, po, AUCO-t) was 12700 ng·h/mL, the Cmax (female, po, Cmax) was 587 ng/mL and the Cmax (female, po, Cmax, Geometric Mean) was 587 ng/mL. For the same molecule, the Cmax (female, po, Cmax, Geometric Means) was 614 ng/mL, the half-life (female, po, T1/2) was 24.4 h and the Tmax (female, po, Tmax) was 2.19 h. The Tmax (female, po, Tmax, Median) was 2.06 h, the Vd/F (female, po) was 265 L and the Tmax (female, po, median Tmax) was 2 h. The half-life (female, po, t1/2, Geometric Mean) was 24.6 h, the “90% CI of the median difference (elderly-young), Tmax” value was −0.5, 0.5 and the “90% CI of the median difference (fed-fast), Tmax” value was 2.00, 3.00. For the same molecule, the “90% CI of the median difference (female-male), Tmax” value was 0.00, 1.00, the “90% CI for the ratio (fed/fast) of geometric means, AUC0-t” value (male) was 97.3, 108.1 and the “90% CI for the ratio (fed/fast) of geometric means, AUC0-∞” value (male) was 98.5, 109.4. The “90% CI for the ratio (fed/fast) of geometric means, Cmax” value (male) was 71.6, 105.3, the Tmax (male) was 1.00 h and the AUC(0-t) (male) was 14400 ng·h/mL. It also gave an AUC(0-inf) (male, AUC0-∞) of 15600 ng·h/mL, a Cmax (male, Cmax) of 658 ng/mL and a half-life (male, t1/2) of 32 h. For the same molecule, the “median Tmax” value (male, po) was 1 h, the AUC(0-t) (male, po, Geometric Mean) was 14000 ng·h/mL and the AUC(0-inf) (male, po, AUC0-∞) was 15000 ng·h/mL. For the same molecule, the AUC(0-inf) (male, po, AUC0-∞ (geometric mean)) was 16200 ng·h/mL, the AUC(0-inf) (male, po, AUC0-∞, Geometric Mean) was 15000 ng·h/mL and the AUC (male, po, AUCO-inf) was 16000 ng·h/mL. For the same molecule, the AUC (male, po, AUCO-t) was 14700 ng·h/mL, the Cmax (male, po, Cmax) was 646 ng/mL and the Cmax (male, po, Cmax (geometric mean)) was 572 ng/mL. It also gave a Cmax (male, po, Cmax, Geometric Mean) of 646 ng/mL, a half-life (male, po, T1/2) of 33 h and a Vd/F (male, po) of 308 L. For the same molecule, the half-life (male, po, t1/2, Geometric Mean) was 28.1 h.
